Here are results for 38 molecules from patent US20020026053A1, “Novel 3-(substituted) -2- indolinones compounds and use thereof as inhibitors of protein kinase activity” (priority 1997, published 2002).

The test system of one assay is FLK-1 receptor. Nature of the assay: FLK-1 Assay (cellular/catalytic ELISA, VEGF-stimulated phosphotyrosine). Type of assay: cell-based. The arrangement: concentration or dose not given beside the values. A digest of the protocol: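 Receptor phosphotyrosine ELISA: Flk-1-expressing NIH3T3 C7#3 cells, starved overnight in 0.1% FBS medium, received compound (1:200 final dilution, 0.5% DMSO) for 2 h at 37 °C, then VEGF. Anti-FLK-1-captured receptor was probed with anti-phosphotyrosine UB40 and peroxidase/ABTS read-out, relative to cells without compound.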

In the next assay the test system is PDGF-R. Nature of the assay: PDGF-R Assay (cellular ELISA, U1242 cells). It counts as cell-based. Set-up: concentration or dose not given beside the values. In a few lines: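 Cellular ELISA for receptor autophosphorylation: after 2 hr test-compound treatment of serum-free U1242 cells at 37°C, ligand is added for 5–10 min, cells are lysed (HNTG) and receptor captured by specific antibody. Anti-phosphotyrosine plus secondary antibody with ABTS colour read at 410/630 nm, compared with compound-free control cells.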

In the case of `Cc1c(Br)ccc2c1C(=Cc1cccc3ccccc13)C(=O)N2` [10735/C09], the “Flk Kinase % Inhibition (P.110)” value in the assay with FLK-1 receptor is 24.5%. The “PDGF Kinase % Inhibition (P.119)” value in the assay with PDGF-R is −2.6%.
On to `Cc1c(Br)ccc2c1C(=Cc1ccc(Cl)cc1Cl)C(=O)N2` [10735/C10], for which the “Flk Kinase % Inhibition (P.110)” value in the assay with FLK-1 receptor stood at 21.0%. In addition, the “PDGF Kinase % Inhibition (P.119)” value in the assay on PDGF-R worked out at 4.0%.
Regarding `Cc1c(Br)ccc2c1C(=Cc1ccc(-c3ccccc3)cc1)C(=O)N2` [10735/C11], the “Flk Kinase % Inhibition (P.110)” value in the assay with FLK-1 receptor is listed as 18.6%. Moreover, in the assay on PDGF-R, the “PDGF Kinase % Inhibition (P.119)” value is on record as −2.9%.
For `CNS(=O)(=O)c1ccc2c(c1)C(=Cc1ccccc1C)C(=O)N2` [10735/D02] the same measures were 0.9% and 11.6%.
For the molecule `CNS(=O)(=O)c1ccc2c(c1)C(=Cc1ccc(F)c(F)c1)C(=O)N2` [10735/D03], the “Flk Kinase % Inhibition (P.110)” value in the assay with FLK-1 receptor stood at 4.5%. The “PDGF Kinase % Inhibition (P.119)” value in the assay on PDGF-R was 12.9%.
For `CNS(=O)(=O)c1ccc2c(c1)C(=Cc1cc(F)cc(F)c1)C(=O)N2` [10735/D04], the “Flk Kinase % Inhibition (P.110)” value with FLK-1 receptor is listed as 9.1%. For the same molecule, the “PDGF Kinase % Inhibition (P.119)” value with PDGF-R was 8.5%.
On to `CNS(=O)(=O)c1ccc2c(c1)C(=Cc1cccc(C(F)(F)F)c1)C(=O)N2` [10735/D05], for which the “Flk Kinase % Inhibition (P.110)” value in the assay with FLK-1 receptor was 29.5%. Besides, the “PDGF Kinase % Inhibition (P.119)” value with PDGF-R was 20.5%.
Regarding `CNS(=O)(=O)c1ccc2c(c1)C(=Cc1cc(C(F)(F)F)cc(C(F)(F)F)c1)C(=O)N2` [10735/D06], in the assay with FLK-1 receptor, the “Flk Kinase % Inhibition (P.110)” value is listed as 16.2%. Also, in the assay on PDGF-R, the “PDGF Kinase % Inhibition (P.119)” value came out at 14.7%.
For `CNS(=O)(=O)c1ccc2c(c1)C(=Cc1ccccc1C#N)C(=O)N2` [10735/D07], the “Flk Kinase % Inhibition (P.110)” value in the assay with FLK-1 receptor amounted to 21.6%. Besides, the “PDGF Kinase % Inhibition (P.119)” value in the assay on PDGF-R came to 3.6%.
As for `CNS(=O)(=O)c1ccc2c(c1)C(=Cc1c(F)cccc1F)C(=O)N2` [10735/D08], the “Flk Kinase % Inhibition (P.110)” value with FLK-1 receptor was determined as 21.6%. Further, in the assay on PDGF-R, the “PDGF Kinase % Inhibition (P.119)” value was −5.7%.
Turning to `CNS(=O)(=O)c1ccc2c(c1)C(=Cc1cccc3ccccc13)C(=O)N2` [10735/D09], the “Flk Kinase % Inhibition (P.110)” value with FLK-1 receptor is given as 22.6%. In addition, the “PDGF Kinase % Inhibition (P.119)” value in the assay on PDGF-R turned out to be 6.7%.
For `CNS(=O)(=O)c1ccc2c(c1)C(=Cc1ccc(Cl)cc1Cl)C(=O)N2` [10735/D10] the same measures were 15.1% and 3.3%.
For `CNS(=O)(=O)c1ccc2c(c1)C(=Cc1ccc(-c3ccccc3)cc1)C(=O)N2` [10735/D11] the same measures were 25.1% and 0.5%.
As to `Cc1ccccc1C=C1C(=O)Nc2ccc(S(=O)(=O)Nc3ccc(C(F)(F)F)cc3)cc21` [10735/E02], in the assay with FLK-1 receptor, the “Flk Kinase % Inhibition (P.110)” value was −2.0%. Besides, the “PDGF Kinase % Inhibition (P.119)” value with PDGF-R is 14.7%.
In the case of `O=C1Nc2ccc(S(=O)(=O)Nc3ccc(C(F)(F)F)cc3)cc2C1=Cc1ccc(F)c(F)c1` [10735/E03], in the assay with FLK-1 receptor, the “Flk Kinase % Inhibition (P.110)” value stood at 5.1%. Moreover, the “PDGF Kinase % Inhibition (P.119)” value with PDGF-R was determined as 16.0%.
Consider `O=C1Nc2ccc(S(=O)(=O)Nc3ccc(C(F)(F)F)cc3)cc2C1=Cc1cc(F)cc(F)c1` [10735/E04], for which the “Flk Kinase % Inhibition (P.110)” value with FLK-1 receptor is given as 12.2%. Moreover, in the assay on PDGF-R, the “PDGF Kinase % Inhibition (P.119)” value is given as 91.6%.
For the molecule `O=C1Nc2ccc(S(=O)(=O)Nc3ccc(C(F)(F)F)cc3)cc2C1=Cc1cccc(C(F)(F)F)c1` [10735/E05], the “Flk Kinase % Inhibition (P.110)” value in the assay with FLK-1 receptor came to 14.7%. The “PDGF Kinase % Inhibition (P.119)” value in the assay on PDGF-R turned out to be 47.8%.
For `O=C1Nc2ccc(S(=O)(=O)Nc3ccc(C(F)(F)F)cc3)cc2C1=Cc1cc(C(F)(F)F)cc(C(F)(F)F)c1` [10735/E06] the same measures were 23.8% and 32.3%.
For `N#Cc1ccccc1C=C1C(=O)Nc2ccc(S(=O)(=O)Nc3ccc(C(F)(F)F)cc3)cc21` [10735/E07], in the assay on FLK-1 receptor, the “Flk Kinase % Inhibition (P.110)” value is reported as 16.1%. In the assay with PDGF-R, the “PDGF Kinase % Inhibition (P.119)” value stood at 57.1%.
For `O=C1Nc2ccc(S(=O)(=O)Nc3ccc(C(F)(F)F)cc3)cc2C1=Cc1c(F)cccc1F` [10735/E08] the same measures were 14.4% and 25.4%.
Consider `O=C1Nc2ccc(S(=O)(=O)Nc3ccc(C(F)(F)F)cc3)cc2C1=Cc1cccc2ccccc12` [10735/E09], for which the “Flk Kinase % Inhibition (P.110)” value in the assay with FLK-1 receptor is recorded as 29.6%. In the assay with PDGF-R, the “PDGF Kinase % Inhibition (P.119)” value is 37.1%.
As to `O=C1Nc2ccc(S(=O)(=O)Nc3ccc(C(F)(F)F)cc3)cc2C1=Cc1ccc(Cl)cc1Cl` [10735/E10], in the assay on FLK-1 receptor, the “Flk Kinase % Inhibition (P.110)” value was determined as 10.2%. In addition, the “PDGF Kinase % Inhibition (P.119)” value in the assay on PDGF-R came to 27.1%.
On to `O=C1Nc2ccc(S(=O)(=O)Nc3ccc(C(F)(F)F)cc3)cc2C1=Cc1ccc(-c2ccccc2)cc1` [10735/E11], for which the “Flk Kinase % Inhibition (P.110)” value in the assay with FLK-1 receptor is recorded as 21.9%. Moreover, in the assay on PDGF-R, the “PDGF Kinase % Inhibition (P.119)” value came out at 11.9%.
For `Cc1ccccc1C=C1C(=O)Nc2ccc(S(=O)(=O)N3CCOCC3)cc21` [10735/F02], the “Flk Kinase % Inhibition (P.110)” value in the assay with FLK-1 receptor was 2.1%. Also, the “PDGF Kinase % Inhibition (P.119)” value with PDGF-R worked out at 6.0%.
With `O=C1Nc2ccc(S(=O)(=O)N3CCOCC3)cc2C1=Cc1ccc(F)c(F)c1` [10735/F03], the “Flk Kinase % Inhibition (P.110)” value with FLK-1 receptor is reported as 11.0%. Besides, in the assay with PDGF-R, the “PDGF Kinase % Inhibition (P.119)” value was 7.8%.
Regarding `O=C1Nc2ccc(S(=O)(=O)N3CCOCC3)cc2C1=Cc1cc(F)cc(F)c1` [10735/F04], the “Flk Kinase % Inhibition (P.110)” value with FLK-1 receptor stood at 16.4%. Further, the “PDGF Kinase % Inhibition (P.119)” value with PDGF-R was 40.5%.
On to `O=C1Nc2ccc(S(=O)(=O)N3CCOCC3)cc2C1=Cc1cccc(C(F)(F)F)c1` [10735/F05], for which the “Flk Kinase % Inhibition (P.110)” value in the assay with FLK-1 receptor worked out at 30.2%. In addition, the “PDGF Kinase % Inhibition (P.119)” value in the assay with PDGF-R was determined as 37.1%.
For `O=C1Nc2ccc(S(=O)(=O)N3CCOCC3)cc2C1=Cc1cc(C(F)(F)F)cc(C(F)(F)F)c1` [10735/F06] the same measures were 16.7% and 20.9%.
On to `N#Cc1ccccc1C=C1C(=O)Nc2ccc(S(=O)(=O)N3CCOCC3)cc21` [10735/F07], for which the “Flk Kinase % Inhibition (P.110)” value with FLK-1 receptor is 34.0%. The “PDGF Kinase % Inhibition (P.119)” value in the assay on PDGF-R was 19.2%.
Turning to `O=C1Nc2ccc(S(=O)(=O)N3CCOCC3)cc2C1=Cc1c(F)cccc1F` [10735/F08], the “Flk Kinase % Inhibition (P.110)” value in the assay on FLK-1 receptor was determined as 10.7%. In the assay on PDGF-R, the “PDGF Kinase % Inhibition (P.119)” value was 13.3%.
For `O=C1Nc2ccc(S(=O)(=O)N3CCOCC3)cc2C1=Cc1cccc2ccccc12` [10735/F09] the same measures were 40.2% and 19.8%.
As to `O=C1Nc2ccc(S(=O)(=O)N3CCOCC3)cc2C1=Cc1ccc(Cl)cc1Cl` [10735/F10], the “Flk Kinase % Inhibition (P.110)” value in the assay on FLK-1 receptor came out at 40.0%. Moreover, the “PDGF Kinase % Inhibition (P.119)” value in the assay on PDGF-R is 13.3%.
For the molecule `O=C1Nc2ccc(S(=O)(=O)N3CCOCC3)cc2C1=Cc1ccc(-c2ccccc2)cc1` [10735/F11], the “Flk Kinase % Inhibition (P.110)” value in the assay with FLK-1 receptor is 34.6%. Moreover, in the assay on PDGF-R, the “PDGF Kinase % Inhibition (P.119)” value was found to be 4.0%.
Turning to `Cc1ccccc1C=C1C(=O)Nc2ccc(CCCl)cc21` [10735/G02], the “Flk Kinase % Inhibition (P.110)” value in the assay on FLK-1 receptor amounted to 5.1%. Further, the “PDGF Kinase % Inhibition (P.119)” value in the assay on PDGF-R is 7.1%.
As to `O=C1Nc2ccc(CCCl)cc2C1=Cc1ccc(F)c(F)c1` [10735/G03], in the assay with FLK-1 receptor, the “Flk Kinase % Inhibition (P.110)” value turned out to be 6.8%. Moreover, the “PDGF Kinase % Inhibition (P.119)” value in the assay with PDGF-R turned out to be 6.4%.
For the molecule `O=C1Nc2ccc(CCCl)cc2C1=Cc1cc(F)cc(F)c1` [10735/G04], the “Flk Kinase % Inhibition (P.110)” value with FLK-1 receptor is given as 15.6%. For the same molecule, the “PDGF Kinase % Inhibition (P.119)” value in the assay with PDGF-R is 11.6%.
For `O=C1Nc2ccc(CCCl)cc2C1=Cc1cccc(C(F)(F)F)c1` [10735/G05] the same measures were 8.8% and 13.6%.
`O=C1Nc2ccc(CCCl)cc2C1=Cc1cc(C(F)(F)F)cc(C(F)(F)F)c1` [10735/G06]: the “Flk Kinase % Inhibition (P.110)” value in the assay with FLK-1 receptor was determined as 18.5%. Also, the “PDGF Kinase % Inhibition (P.119)” value in the assay with PDGF-R came to 12.9%.
